Experimental data: US20120252741A1, “NOVEL SEMI-SYNTHETIC GLYCOPEPTIDES AS ANTIBACTERIAL AGENTS” (priority 2008, published 2012)
Values after ≈ are worked out from the molar mass of the structure shown. Like-named read-outs stand apart in the source and are kept apart here.

Legend:
Assay type in all cases: cell-based
[1] = test system: Staphylococcus epidermidis 835; test: MIC, broth microdilution, SE 835; conditions: Staphylococcus epidermidis, 835, class symbols, read-out: MIC SE 835
Method: (§1) Antibacterial activity in vitro is investigated by broth microdilution method in Meuller-Hinton broth as recommended by NCCLS. All strains tested are clinical isolates either sensitive or resistant to natural glycopeptides. MIC values were determined using the CLSI-recommended broth microdilution procedure (Clinical and Laboratory Standards Institute, Methods for Dilution Antimicrobial Susceptibility Tests for Bacteria That Grow Aerobically; Approved Standard-Seventh Edition.). Automated liquid handlers (Multidrop 384, Labsystems, Helsinki, Finland; Biomek 2000 and Multimek 96, Beckman Coulter, Fullerton Calif.) were used to conduct serial dilutions and liquid transfers. The MIC value for vancomycin is given for comparison. The abbreviations for organisms tested are as follow: SA 100—Staphylococcus aureus 100 (ATCC 29213); SA 757—Staphylococcus aureus 757 (MRSA); SA 2012—Staphylococcus aureus 2012 (VISA); SE 835—Staphylococcus epidermidis 835; SE 831—Staphylococcus epidermidis 831 (MRSE); EFc 101—Enterococcus faecalis 101 (ATCC 29212); EFc 848—Enterococcus faecalis 848 (VRE, Van A); EFcm 800—Enterococcus faecium 800; EFcm 752—Enterococcus faecium 752 (VRE, Van A); SPNE 1195—Streptococcus pneumoniae 1195 (ATCC 49619); SPY 712—Streptococcus pyogenes 712.

[2] = test system: Enterococcus faecalis 848 (VRE, Van A); test: MIC, broth microdilution, EFc 848; conditions: VRE, Van A, class symbols, read-out: MIC E FC 848
Method: as §1

[3] = test system: Staphylococcus aureus 100 (ATCC 29213); test: MIC, broth microdilution, SA 100; conditions: Staphylococcus aureus, ATCC29213, class symbols, read-out: MIC SA 100
Method: as §1

[4] = test system: Enterococcus faecalis 101 (ATCC 29212); test: MIC, broth microdilution, EFc 101; conditions: Enterococcus faecalis, ATCC29212, class symbols, read-out: MIC E FC 101
Method: as §1

[5] = test system: Staphylococcus epidermidis 831 (MRSE); test: MIC, broth microdilution, SE 831; conditions: Staphylococcus epidermidis, read-out: MIC SE 831
Method: as §1

Enterococcus faecium 800 = test: MIC, broth microdilution, EFcm 800; conditions: Enterococcus faecium, 800, class symbols, read-out: MIC E FCM 800
Method: as §1

[6] = test system: Streptococcus pyogenes 712; test: MIC, broth microdilution, SPY 712; conditions: Streptococcus pyogenes, 712, class symbols, read-out: MIC S PYO 712
Method: as §1

[7] = test system: Staphylococcus aureus 757 (MRSA); test: MIC, broth microdilution, SA 757; conditions: read-out: MIC SA 757
Method: as §1

[8] = test system: Streptococcus pneumoniae 1195 (ATCC 49619); test: MIC, broth microdilution, SPNE 1195; conditions: Streptococcus pneumoniae, ATCC49619, class symbols, read-out: MIC S PNE 1195
Method: as §1

[9] = test system: Enterococcus faecium 752 (VRE, Van A); test: MIC, broth microdilution, EFcm 752; conditions: VRE, Van A, class symbols, read-out: MIC E FCM 752
Method: as §1

[10] = test system: Staphylococcus aureus 2012 (VISA); test: MIC, broth microdilution, SA 2012; conditions: read-out: MIC SA 2012
Method: as §1

[11] = Table 2, in the presence of 0.002% Polysorbate 80
[12] = Table 2, in the presence of 0.002% Polysorbate 80, class symbols

Row | Structure (SMILES) | MIC [1, 11] | MIC [2, 11] | MIC [3, 11] | MIC [4, 11] | MIC [5, 12] | MIC (Enterococcus faecium 800; [11]) | MIC [6, 11] | MIC [7, 12] | MIC [8, 11] | MIC [9, 11] | MIC [10, 12] | further results
1 | CCCCCCCCCC(=O)NC(=O)C[C@@H]1NC(=O)[C@H](NC(=O)[C@@H](CC(C)C)NC)[C@H](O)c2ccc(c(Cl)c2)Oc2cc3cc(c2O[C@@H]2O[C@H](CO)[C@@H](O)[C@H](O)[C@H]2O[C@H]2C[C@](C)(N)[C@H](O)[C@H](C)O2)Oc2ccc(cc2Cl)[C@@H](O)[C@@H]2NC(=O)[C@H](NC(=O)[C@@H]3NC1=O)c1ccc(O)c(c1)-c1c(O)cc(O)cc1[C@@H](C(=O)NC1C3CC4CC(C3)CC1C4)NC2=O (some centres unmarked) [Compound 43] | – | – | – | – | – | – | – | – | – | – | – | MIC ([1]; Table 1): 0.01 to 0.5 µg/mL (≈ 0.00576 to 0.288 µM); MIC ([2]; Table 1): 1 to 2 µg/mL (≈ 0.576 to 1.15 µM); MIC ([3]; Table 1): 0.01 to 0.5 µg/mL (≈ 0.00576 to 0.288 µM); MIC ([4]; Table 1): 0.01 to 0.5 µg/mL (≈ 0.00576 to 0.288 µM); MIC ([5]; Table 1, class symbols): 0.01 to 0.5 µg/mL (≈ 0.00576 to 0.288 µM); MIC (Enterococcus faecium 800; Table 1): 0.01 to 0.5 µg/mL (≈ 0.00576 to 0.288 µM); MIC ([6]; Table 1): 0.01 to 0.5 µg/mL (≈ 0.00576 to 0.288 µM); MIC ([7]; Table 1, class symbols): 0.5 to 1 µg/mL (≈ 0.288 to 0.576 µM); MIC ([8]; Table 1): 0.01 to 0.5 µg/mL (≈ 0.00576 to 0.288 µM); MIC ([9]; Table 1): 0.01 to 0.5 µg/mL (≈ 0.00576 to 0.288 µM); MIC ([10]; Table 1, class symbols): 1 to 2 µg/mL (≈ 0.576 to 1.15 µM)
2 | CNCCOc1cc(C(=O)NC(=O)C[C@@H]2NC(=O)[C@H](NC(=O)[C@@H](CC(C)C)NC)[C@H](O)c3ccc(c(Cl)c3)Oc3cc4cc(c3O[C@@H]3O[C@H](CO)[C@@H](O)[C@H](O)[C@H]3O)Oc3ccc(cc3Cl)[C@@H](O)[C@@H]3NC(=O)[C@H](NC(=O)[C@@H]4NC2=O)c2ccc(O)c(c2)-c2c(O)cc(O)cc2[C@@H](C(=O)NC2C4CC5CC(C4)CC2C5)NC3=O)cc(OCCNC)c1OCCNC (some centres unmarked) [Compound 162] | 0.5 to 1 µg/mL | > 16 µg/mL | 2 to 4 µg/mL | 1 to 2 µg/mL | 0.01 to 0.5 µg/mL | 0.5 to 1 µg/mL | 0.01 to 0.5 µg/mL | 1 to 2 µg/mL | 1 to 2 µg/mL | 8 to 16 µg/mL | 2 to 4 µg/mL | –
3 | CCOc1ccc(C(=O)NC(=O)C[C@@H]2NC(=O)[C@H](NC(=O)[C@@H](CC(C)C)NC)[C@H](O)c3ccc(c(Cl)c3)Oc3cc4cc(c3O[C@@H]3O[C@H](CO)[C@@H](O)[C@H](O)[C@H]3O[C@H]3C[C@](C)(N)[C@H](O)[C@H](C)O3)Oc3ccc(cc3Cl)[C@@H](O)[C@@H]3NC(=O)[C@H](NC(=O)[C@@H]4NC2=O)c2ccc(O)c(c2)-c2c(O)cc(O)cc2[C@@H](C(=O)NC2C4CC5CC(C4)CC2C5)NC3=O)cc1 (some centres unmarked) [Compound 63] | 0.01 to 0.5 µg/mL | 4 to 8 µg/mL | 0.01 to 0.5 µg/mL | 0.01 to 0.5 µg/mL | 0.01 to 0.5 µg/mL | 0.01 to 0.5 µg/mL | 0.01 to 0.5 µg/mL | 0.01 to 0.5 µg/mL | 0.01 to 0.5 µg/mL | 1 to 2 µg/mL | 2 to 4 µg/mL | –
4 | CCNCCOCc1cc(OCCNCC)cc(C(=O)NC(=O)C[C@@H]2NC(=O)[C@H](NC(=O)[C@@H](CC(C)C)NC)[C@H](O)c3ccc(c(Cl)c3)Oc3cc4cc(c3O[C@@H]3O[C@H](CO)[C@@H](O)[C@H](O)[C@H]3O[C@H]3C[C@](C)(N)[C@H](O)[C@H](C)O3)Oc3ccc(cc3Cl)[C@@H](O)[C@@H]3NC(=O)[C@H](NC(=O)[C@@H]4NC2=O)c2ccc(O)c(c2)-c2c(O)cc(O)cc2[C@@H](C(=O)NC2C4CC5CC(C4)CC2C5)NC3=O)c1 (some centres unmarked) [Compound 164] | 0.01 to 0.5 µg/mL | > 16 µg/mL | 0.01 to 0.5 µg/mL | 0.01 to 0.5 µg/mL | 0.01 to 0.5 µg/mL | 0.01 to 0.5 µg/mL | 0.01 to 0.5 µg/mL | 0.01 to 0.5 µg/mL | 0.01 to 0.5 µg/mL | 8 to 16 µg/mL | 1 to 2 µg/mL | –
